From patent publication US11583506B1, “Cannabinoids for use in suppressing cancer stem cells” (VIVACELL BIOTECHNOLOGY ESPAÑA S.L.U., priority 2020, dated 2023)
“Also recorded” adds a separate entry of the source.

How the values were obtained:
Assay type in all cases: cell-based, human
Hes5 = Hes5 protein level in HCT 116 cells by western blot; details: 10 μM, 6, 16 and 24 hours
Protocol: In cancer stem cells Notch1 signalling pathway is abnormally activated (Venkatesh V et al. Stem Cell Investig. 2018 Mar. 12; 5:5. doi: 10.21037/sci.2018.02.02. PMID: 29682512). For this reason, to further analyse the anti-proliferative CBD effect on colonospheres formation, Notch1 expression was investigated by western blot analysis. Briefly, after treatments, the colonospheres were washed with PBS1X and whole-cell proteins were extracted in 50 μL of lysis buffer (50 mM Tris-HCl pH 7.5, 150 mM NaCl, 10% glycerol and 1% NP-40) supplemented with 10 mM NaF, 1 mM Na3VO4, 10 μg/mL leupeptine, 1 μg/mL pepstatin and aprotinin, and 1 μL/mL phenylmethylsulfonyl fluoride saturated. Protein concentration of the whole-cell lysates was quantified by absorbance at 595 nm using Bradford reagent compared to a bovine serum albumin standard curve. Then, forty micrograms of protein were boiled at 95° C. in Laemmli buffer and electrophoresed in 10% SDS/PAGE gels. […] After washing membranes, horseradish peroxidase-conjugated secondary antibody was added and the protein bands on the membranes were detected with ECL reagent (BioRad. Hercules, Calif., USA) by chemiluminescence system (GE Healthcare Europe GmbH. Munich, Germany). […]

Notch1 [1] = test: Notch1 expression in colonospheres by western blot; details: colonospheres after 7 days of treatment, 1 and 5 μM, western blot normalized to Actin
Protocol: In cancer stem cells Notch1 signalling pathway is abnormally activated (Venkatesh V et al. Stem Cell Investig. 2018 Mar. 12; 5:5. doi: 10.21037/sci.2018.02.02. PMID: 29682512). For this reason, to further analyse the anti-proliferative CBD effect on colonospheres formation, Notch1 expression was investigated by western blot analysis. Briefly, after treatments, the colonospheres were washed with PBS1X and whole-cell proteins were extracted in 50 μL of lysis buffer (50 mM Tris-HCl pH 7.5, 150 mM NaCl, 10% glycerol and 1% NP-40) supplemented with 10 mM NaF, 1 mM Na3VO4, 10 μg/mL leupeptine, 1 μg/mL pepstatin and aprotinin, and 1 μL/mL phenylmethylsulfonyl fluoride saturated. Protein concentration of the whole-cell lysates was quantified by absorbance at 595 nm using Bradford reagent compared to a bovine serum albumin standard curve. Then, forty micrograms of protein were boiled at 95° C. in Laemmli buffer and electrophoresed in 10% SDS/PAGE gels. […] After washing membranes, horseradish peroxidase-conjugated secondary antibody was added and the protein bands on the membranes were detected with ECL reagent (BioRad. Hercules, Calif., USA) by chemiluminescence system (GE Healthcare Europe GmbH. Munich, Germany).
The densitometry analysis was performed using ImageJ software, and the quantified band intensities were normalized to Actin. […]

HCT 116 cells = test: tumorospheres (colonospheres) formation assay; details: 7 days of treatment, 1, 2.5, 5 and 10 μM, vs vehicle (DMSO)
Source text: Cancer stem cells (CSC) cultured 3-dimentionally in a serum-free medium supplemented with growth factors are able to form floating spheroids known as tumorospheres (Reynolds B A et al. Dev Biol. 1996; 175(1):1-13. doi:10.1006/dbio.1996.0090; Singh S K et al. Cancer Res. 2003; 63(18):5821-8. PMID: 14522905). These cancer cells-derived spheroids have been proven to display CSCs characteristics and recapitulate in vitro the in vivo conditions of cancer growth becoming an ideal model to evaluate anti-CSC drugs (Dieter S M et al. Cell Stem Cell. 2011; 9(4):357-65. doi: 10.1016/j.stem.2011.08.010. PMID: 21982235; Lee C H et al. Oncotarget. 2016; 7(2):1215-26. doi: 10.18632/oncotarget.6261. PMID: 26527320).
To study the CBD effect on colonospheres proliferation, a tumorospheres formation assay was performed. Briefly, human colorectal carcinoma HCT 116 cells (ATCC No. CCL-247) were trypsinized, quantified and seeded at clonal density (5 cell/μL) in ultra-low attachment surface 96-well plates (Corning-Costar. Coming, N.Y., USA) with serum free Dulbecco's Modified Eagle's Medium (DMEM)/Nutrient Mixture F-12 Ham (Sigma-Aldrich. St. Louis, Mo., USA) supplemented with 1X B-27 (Invitrogen, Carlsbad, Calif., USA), 10 ng/mL basic fibroblast growth factor (bFGF; PeproTech. London, UK), 20 ng/mL epidermal growth factor (EGF; Santa Cruz Biotechnology, Heidelberg, Germany), 1% (v/v) methylcellulose (R&D Systems. Minneapolis, Minn., USA) to prevent cell aggregation and the corresponding dose of vehicle (DMSO) or CBD concentration (1, 2.5, 5 and 10 μM). Every 2-3 days freshly supplements were added and the number and size of colonospheres were analysed by optical microscopy 1 week after seeding.

Notch1 [2] = test: Notch1 levels in HCT 116 cells by western blot; details: for Notch1 levels, panel of natural cannabinoids / Notch1 expression levels, concentration dependence: HCT 116 cells; for Notch1 levels, panel of natural cannabinoids: 24 hours, 10 μM; for Notch1 expression levels, concentration dependence: 24 hours, 1, 2.5, 5 and 10 μM
Protocol: In cancer stem cells Notch1 signalling pathway is abnormally activated (Venkatesh V et al. Stem Cell Investig. 2018 Mar. 12; 5:5. doi: 10.21037/sci.2018.02.02. PMID: 29682512). For this reason, to further analyse the anti-proliferative CBD effect on colonospheres formation, Notch1 expression was investigated by western blot analysis. Briefly, after treatments, the colonospheres were washed with PBS1X and whole-cell proteins were extracted in 50 μL of lysis buffer (50 mM Tris-HCl pH 7.5, 150 mM NaCl, 10% glycerol and 1% NP-40) supplemented with 10 mM NaF, 1 mM Na3VO4, 10 μg/mL leupeptine, 1 μg/mL pepstatin and aprotinin, and 1 μL/mL phenylmethylsulfonyl fluoride saturated. Protein concentration of the whole-cell lysates was quantified by absorbance at 595 nm using Bradford reagent compared to a bovine serum albumin standard curve. Then, forty micrograms of protein were boiled at 95° C. in Laemmli buffer and electrophoresed in 10% SDS/PAGE gels. Separated proteins were transferred to polyvinylidene difluoride (PVDF) membranes (20V for 30 min) and blocked in TBSIX solution containing 0.1% Tween 20 and 5% non-fat dry milk for 1 hour at room temperature. Immunodetection of specific proteins was carried out by incubation with primary antibody against human Notch1 (1:1000 dilution. Ref. #ab52627, Abcam. Cambridge, UK) and β-actin (1:10.000 dilution. Ref. #A5316, Sigma-Aldrich. St. Louis, Mo., USA) overnight at 4° C. After washing membranes, horseradish peroxidase-conjugated secondary antibody was added and the protein bands on the membranes were detected with ECL reagent (BioRad. Hercules, Calif., USA) by chemiluminescence system (GE Healthcare Europe GmbH. Munich, Germany).
The densitometry analysis was performed using ImageJ software, and the quantified band intensities were normalized to Actin. […] Thus, it can be concluded that the reduction of Notch1 levels is critical to inhibit the colonospheres proliferation.
(§1) To gain insight into the CBD effect on Notch1 pathway, a deep study using the human colorectal carcinoma HCT 116 cell line (ATCC No. CCL-247) was performed to analyse Notch1 levels. […] Moreover, the Hes5 protein level, a Notch signalling-related protein, was also analysed by western blot following the methodology explained above and using a specific primary antibody (Human anti-Hes5. 1:1000 dilution. Ref. #ab25374, Abcam. Cambridge, UK). […] To further clarify the CBD mechanism of causing a reduced Notch1 expression, HCT 116 cells were incubated with the proteasome inhibitor MG132 and/or with CBD.
A panel of natural cannabinoids CBDA, CBDV, CBC, CBCA, CBCV, CBG, CBGA, CBGV, CBGVA, CBN, THC and THCA were evaluated in its capacity to reduce Notch1 levels in human colorectal carcinoma HCT 116 cell line. CBD was purchase from Endoca BV (Netherlands). CBDA, CBDV, CBCA, CBG, CBGA, THC and […] were purchased from Phytoplant Research S.L (Cordoba, Spain). CBC, CBCV, CBGV, CBGVA and CBN were provided by the laboratory of the Professor Giovanni Appendino from the University of Piemonte Orientale (Novara, Italy).

Notch1 [3] = test: Notch1 degradation with proteasome inhibitor MG132 in HCT 116 cells; details: 24 hours, 10 μM CBD and/or 10 μM MG-132
Protocol: as §1

Notch1 [4] = test: Notch1 expression in HT-29 cancer cell line; details: HT-29 (Colon)
Protocol: (§2) The effect of CBGV on Notch1 expression levels was evaluated in a panel of cancer cell lines. Human colorectal carcinoma Hct116 (No. CCL-247), human colorectal adenocarcinoma HT-29 (No. HTB-38), human brain neuroblastoma SK—N—SH (No. HTB-11), human breast adenocarcinoma MDA-MB-231 (No. HTB-26), human prostate adenocarcinoma PC3 (No. CRL-1435), human prostate carcinoma DU-145 (No. HTB-81), human lung carcinoma A549 (No. CCL-185) and human lung carcinoma H1299 (No. CRL-5803) cell lines were obtained from the American Type Culture Collection (ATCC, USA).

Notch1 [5] = test: Notch1 expression in PC3 cancer cell line; details: PC3 (Prostate)
Protocol: as §2

Notch1 [6] = test: Notch1 expression in Hct116 cancer cell line; details: Hct116 (Colon)
Protocol: as §2

Notch1 [7] = test: Notch1 expression in A549 cancer cell line; details: A549 (Lung)
Protocol: as §2

Notch1 [8] = test: Notch1 expression in MDA-MB-231 cancer cell line; details: MDA-MB-231 (Breast)
Protocol: as §2

Notch1 [9] = test: Notch1 expression in DU145 cancer cell line; details: DU145 (Prostate)
Protocol: as §2

Notch1 [10] = test: Notch1 expression in H1299 cancer cell line; details: H1299 (Lung)
Protocol: as §2

Notch1 [11] = test: Notch1 expression in SK-N-SH cancer cell line; details: SK-N-SH (Brain)
Protocol: as §2

SMILES	Hes5 expression levels (Hes5)	Notch1 levels in colonospheres (Notch1 [1])	colonospheres formation (HCT 116 cells)	Notch1 protein levels in HCT 116 cells (dose and time dependence) (Notch1 [2]; 1, 2.5, 5 and 10 μM for 24 hours, 10 μM at 6, 16 and 24 hours)	Notch1 levels, panel of natural cannabinoids (Notch1 [2])	Notch1 degradation through the proteasome (Notch1 [3])	Inhibition of Notch1 expression in cancer cells (Notch1 [4])	Inhibition of Notch1 expression in cancer cells (Notch1 [5])	Inhibition of Notch1 expression in cancer cells (Notch1 [6])	Notch1 expression levels, concentration dependence (Notch1 [2])	Inhibition of Notch1 expression in cancer cells (Notch1 [7])	Inhibition of Notch1 expression in cancer cells (Notch1 [8])	Inhibition of Notch1 expression in cancer cells (Notch1 [9])	Inhibition of Notch1 expression in cancer cells (Notch1 [10])	Inhibition of Notch1 expression in cancer cells (Notch1 [11])
C=C(C)[C@@H]1CCC(C)=C[C@H]1c1c(O)cc(CCCCC)cc1O [CBD, cannabidiol]	clearly reduces Hes5 expression levels in HCT 116 cells in a time-dependent manner; also recorded: reduces the expression of Hes5	clearly diminished in a dose-dependent manner; also recorded: reduces Notch1 expression levels in colonospheres	significantly reduces the colonospheres formation in a clear dose-dependent manner	reduces Notch1 protein levels in HCT 166 cells in a dose- and time-dependent manner; also recorded: reduces Notch1 expression levels in colonospheres and HCT 116 cells	clearly diminished Notch1 levels; also recorded: reduce Notch1 expression levels	induces Notch1 degradation by the proteasomal degradation machinery; also recorded: induces Notch1 degradation through the proteasome	–	–	–	–	–	–	–	–	–
CCCc1cc(O)c(C/C=C(\C)CCC=C(C)C)c(O)c1 [CBGV, cannabigerovarin]	–	–	potent dose-dependent anti-proliferative effect of colonospheres formation; also recorded: inhibit colonospheres formation	–	clearly diminished Notch1 levels; also recorded: reduce Notch1 expression levels	–	Yes	Yes	Yes	reduce Notch1 expression levels in a concentration-dependent manner	Yes	Yes	Yes	Yes	Yes
C=C(C)[C@@H]1CCC(C)=C[C@H]1c1c(O)cc(CCC)cc1O [CBDV, cannabidivarin]	–	–	potent dose-dependent anti-proliferative effect of colonospheres formation; also recorded: inhibit colonospheres formation	–	clearly diminished Notch1 levels; also recorded: reduce Notch1 expression levels	–	–	–	–	reduce Notch1 expression levels in a concentration-dependent manner	–	–	–	–	–
